Results taken from patent publication US12502386B2, “Nitrogen-containing heterocyclic compound and use thereof” (SHANGHAI SHIJIANG BIOTECHNOLOGY CO., LTD, priority 2022, dated 2025).
Read-outs that look alike come from different tables or passages of the source.

Tests used:
Assay type in all cases: cell-based, human
ov-NNMT NCI-H82 cell = test: CellTiter-Glo cell viability, ov-NNMT NCI-H82 cell (NNMT overexpressed); conditions: intracellular ATP, read-out: inhibitory effect on OV-NNMT NCI-H82 (IC50)
Con-NCI-H82 cell = test: CellTiter-Glo cell viability, Con-NCI-H82 cell (empty-vector control); conditions: intracellular ATP, read-out: inhibitory effect on Con-NCI-H82 (IC50)
sh-DNMT1 NCI-H82 cell = test: CellTiter-Glo cell viability, sh-DNMT1 NCI-H82 cell (DNMT1 knocked down); conditions: intracellular ATP, read-out: inhibitory effect on sh-DNMT1 NCI-H82 (IC50)
[1] = Homo sapiens, NCI-H82, NCI-H82 overexpressing NNMT protein
[2] = Homo sapiens, NCI-H82, NCI-H82 transfected with empty virus vector (control)
[3] = Homo sapiens, NCI-H82, NCI-H82 with DNMT1 knocked down by shRNA

SMILES	IC50 (ov-NNMT NCI-H82 cell; [1]) [µM]	IC50 (Con-NCI-H82 cell; [2]) [µM]	IC50 (sh-DNMT1 NCI-H82 cell; [3]) [µM]	IC50 (ov-NNMT NCI-H82 cell; NCI-H82 overexpressing NNMT protein) [µM]	IC50 (Con-NCI-H82 cell; NCI-H82 transfected with empty virus vector (control)) [µM]	IC50 (sh-DNMT1 NCI-H82 cell; NCI-H82 with DNMT1 knocked down by shRNA) [µM]
COc1ccc2c(c1OC)C(C1CCCC1)N1CCc3cc4c(cc3C1=C2)OCO4 (stereo not drawn) [AB36497]	–	–	–	18.3	19.9	17
COc1ccc2c(c1OCCNC(=O)OC(C)(C)C)C(C)N1CCc3cc4c(cc3C1=C2)OCO4 (stereo not drawn) [AB35424]	11.2	5.02	10.8	–	–	–
COc1ccc2c(c1OCCCN1CCCCC1)C(C)N1CCc3cc4c(cc3C1=C2)OCO4 (stereo not drawn) [AB35442]	8.38	9.22	9.32	–	–	–
CC1=C2c3cc4c(cc3CCN2C(C(Cl)(Cl)Cl)c2c1ccc1c2OCO1)OCO4 (stereo not drawn) [AB36442]	13.3	15	14.1	–	–	–
CCCCCC1=C2c3cc4c(cc3CCN2C(C)c2c1ccc(OC)c2OC)OCO4 (stereo not drawn) [AB35422]	5.48	2.32	4.94	–	–	–
[2H]C([2H])([2H])Oc1c(OC)ccc2c1C([2H])(C1CCCC1)N1CCc3cc4c(cc3C1=C2)OCO4 (stereo not drawn) [AB36509]	1.68	0.51	2.58	–	–	–
COc1ccc2c(c1OC)C(c1ccccc1)N1CCc3cc4c(cc3C1=C2)OCO4 (stereo not drawn) [AB36467]	9.32	3.92	13.1	–	–	–
COc1ccc2c(c1OCCCCCCBr)C(C)N1CCc3cc4c(cc3C1=C2)OCO4 (stereo not drawn) [AB31897]	5.32	1.43	4.96	–	–	–
CCCCC1c2c(c(Br)cc(OC)c2OC)C=C2c3cc4c(cc3CCN21)OCO4 (stereo not drawn) [AB31873]	6.32	2.88	6.08	–	–	–
COc1ccc2c(c1OCCCCCCBr)C(C1CCCC1)N1CCc3cc4c(cc3C1=C2)OCO4 (stereo not drawn) [AB35458]	4.12	1.56	5.32	–	–	–
CCCCOc1c(OC)ccc2c1C(C(Cl)(Cl)Cl)N1CCc3cc4c(cc3C1=C2)OCO4 (stereo not drawn) [AB35494]	2.12	0.43	1.96	–	–	–
COc1ccc2c(c1OCCCCCCNC(=O)OC(C)(C)C)C(C(Cl)(Cl)Cl)N1CCc3cc4c(cc3C1=C2)OCO4 (stereo not drawn) [AB35407]	2.73	0.74	3.44	–	–	–
ClC(Cl)(Cl)C1c2c(ccc3c2OCO3)C(CCCc2ccccc2)=C2c3cc4c(cc3CCN21)OCO4 (stereo not drawn) [AB35428]	10.2	4.23	15.4	–	–	–
CCCC1=C2c3cc4c(cc3CCN2C(C2CCCC2)c2c1ccc1c2OCO1)OCO4 (stereo not drawn) [AB36432]	3.68	1.26	4.46	–	–	–
COc1ccc2c(c1OC)C(C(Cl)(Cl)Cl)N1CCc3cc4c(cc3C1=C2CCCCCCBr)OCO4 (stereo not drawn) [AB35501]	2.12	0.87	2.56	–	–	–
CCOc1c(OC)ccc2c1C(C(Cl)(Cl)Cl)N1CCc3cc4c(cc3C1=C2)OCO4 (stereo not drawn) [AB35499]	6.96	2.16	6.52	–	–	–
COc1c(OCCCCl)ccc2c1C(C1CCCC1)N1CCc3cc4c(cc3C1=C2)OCO4 (stereo not drawn) [AB36474]	4.12	1.33	6.08	–	–	–

SMILES	IC50 (ov-NNMT NCI-H82 cell; [1]) [µM]	IC50 (Con-NCI-H82 cell; [2]) [µM]	IC50 (sh-DNMT1 NCI-H82 cell; [3]) [µM]	IC50 (ov-NNMT NCI-H82 cell; NCI-H82 overexpressing NNMT protein) [µM]	IC50 (Con-NCI-H82 cell; NCI-H82 transfected with empty virus vector (control)) [µM]	IC50 (sh-DNMT1 NCI-H82 cell; NCI-H82 with DNMT1 knocked down by shRNA) [µM]
CCCCC1=C2c3cc4c(cc3CCN2C(C(Cl)(Cl)Cl)c2c1ccc(OC)c2OC)OCO4 (stereo not drawn) [AB35502]	7.18	2.93	7.02	–	–	–
COc1ccc2c(c1OCCN(C)C)C(C(Cl)(Cl)Cl)N1CCc3cc4c(cc3C1=C2)OCO4 (stereo not drawn) [AB35446]	16.3	18.4	17.9	–	–	–
COc1ccc2c(c1OC)C(C1CCCC1)N1CCc3cc4c(cc3C1=C2Cc1ccc(C(C)C)cc1)OCO4 (stereo not drawn) [AB35460]	2.02	0.66	2.56	–	–	–
COc1ccc2c(c1OC)C(C(Cl)(Cl)Cl)N1CCc3cc4c(cc3C1=C2CCCc1ccccc1)OCCO4 (stereo not drawn) [AB35484]	3.56	0.77	3.32	–	–	–
COc1ccc2c(c1N1CCN(C)CC1)C(C(Cl)(Cl)Cl)N1CCc3cc4c(cc3C1=C2)OCO4 (stereo not drawn) [AB35518]	10.1	3.52	13.3	–	–	–
[2H]C1([2H])c2c(ccc(OC)c2OC)C=C2c3cc4c(cc3CCN21)OCO4 [AB36434]	2.56	1.02	3.68	–	–	–
COc1ccc2c(c1N1CCN(C)CC1)C(C1CCCC1)N1CCc3cc4c(cc3C1=C2)OCO4 (stereo not drawn) [AB35519]	5.68	2.19	4.68	–	–	–
COc1ccc2c(c1N1CCC(Cl)CC1)CN1CCc3cc4c(cc3C1=C2)OCCO4 [AB35550]	4.69	2.12	4.58	–	–	–
COc1ccc2c(c1OC)C(C(Cl)(Cl)Cl)N1CCc3cc4c(cc3C1=C2CCc1ccccc1)OCO4 (stereo not drawn) [AB35444]	4.21	1.15	5.28	–	–	–
COc1ccc2c(c1OC)C(C)N1CCc3cc4c(cc3C1=C2CCCCc1ccccc1)OCO4 (stereo not drawn) [AB35468]	3.12	0.82	4.32	–	–	–
COc1ccc2c(c1OC)C(C1CCCC1)N1CCc3cc4c(cc3C1=C2CCCCCCBr)OCO4 (stereo not drawn) [AB35523]	2.99	1.02	2.86	–	–	–
COc1ccc2c(c1OC)C(CC(C)=O)N1CCc3cc4c(cc3C1=C2)OCO4 (stereo not drawn) [AB36472]	4.32	4.28	4.11	–	–	–
ClC(Cl)(Cl)C1c2c(ccc3c2OCO3)C=C2c3cc4c(cc3CCN21)OCO4 (stereo not drawn) [AB35421]	12.4	5.77	21.2	–	–	–
COc1ccc2c(c1OCCCCc1ccccc1)C(C(Cl)(Cl)Cl)N1CCc3cc4c(cc3C1=C2)OCO4 (stereo not drawn) [AB35535]	1.21	0.22	1.32	–	–	–
COc1ccc2c(c1OCCN1CCCCC1)C(C)N1CCc3cc4c(cc3C1=C2)OCO4 (stereo not drawn) [AB35443]	18.1	20.6	20.9	–	–	–
COc1ccc2c(c1OCCCCOc1ccccc1)C(C)N1CCc3cc4c(cc3C1=C2)OCO4 (stereo not drawn) [AB31881]	4.04	2.01	3.98	–	–	–
COc1ccc2c(c1OCCCBr)CN1CCc3cc4c(cc3C1=C2)OCO4 [AB35544]	1.02	0.28	2.04	–	–	–

More lines, in order of falling IC50 (ov-NNMT NCI-H82 cell; [1]), values ahead:

IC50 (ov-NNMT NCI-H82 cell; [1]) [µM]	IC50 (Con-NCI-H82 cell; [2]) [µM]	IC50 (sh-DNMT1 NCI-H82 cell; [3]) [µM]	SMILES	IC50 (ov-NNMT NCI-H82 cell; NCI-H82 overexpressing NNMT protein) [µM]	IC50 (Con-NCI-H82 cell; NCI-H82 transfected with empty virus vector (control)) [µM]	IC50 (sh-DNMT1 NCI-H82 cell; NCI-H82 with DNMT1 knocked down by shRNA) [µM]
10.1	12.9	12.6	COc1ccc2cc3n(c(=O)c2c1OC)CCc1cc2c(cc1-3)OCO2 [AB36496]	–	–	–
7.98	8.23	8.46	COc1ccc2c(c1OCCCBr)CN1CCc3cc4c(cc3C1C2)OCO4 (stereo not drawn) [AB31878]	–	–	–
7.56	1.98	9.32	CCC1=C2c3cc4c(cc3CCN2C(C(Cl)(Cl)Cl)c2c1ccc(OC)c2OC)OCO4 (stereo not drawn) [AB35488]	–	–	–
6.86	2.22	6.54	COc1ccc2c(c1OCCCCl)C(C1CCCCC1)N1CCc3cc4c(cc3C1=C2)OCO4 (stereo not drawn) [AB35491]	–	–	–
6.72	2.36	8.42	COc1ccc2c(c1OCCCCl)C(C)N1CCc3cc4c(cc3C1=C2)OCO4 (stereo not drawn) [AB35456]	–	–	–
6.32	2.92	8.24	COc1ccc2c(c1OCCCCCl)C(C(Cl)(Cl)Cl)N1CCc3cc4c(cc3C1=C2)OCO4 (stereo not drawn) [AB35496]	–	–	–
5.78	2.83	5.69	COc1ccc2c(c1OCCCBr)C(C)N1CCc3cc4c(cc3C1=C2)OCO4 (stereo not drawn) [AB31887]	–	–	–
5.23	2.31	6.35	COc1ccc2c(c1OCCNC(=O)OC(C)(C)C)C(C(Cl)(Cl)Cl)N1CCc3cc4c(cc3C1=C2)OCO4 (stereo not drawn) [AB35416]	–	–	–
4.12	1.29	4.02	COc1ccc2c(c1OCCCCCCCl)C(C(Cl)(Cl)Cl)N1CCc3cc4c(cc3C1=C2)OCO4 (stereo not drawn) [AB35475]	–	–	–
4.12	1.26	3.98	CCOc1c(OC)ccc2c1CN1CCc3cc4c(cc3C1=C2)OCO4 [AB35594]	–	–	–
3.68	1.36	5.64	CCCCCC1=C2c3cc4c(cc3CCN2C(C2CCCC2)c2c1ccc(OC)c2OC)OCO4 (stereo not drawn) [AB35522]	–	–	–
3.55	0.92	3.98	COc1ccc2c(c1OCc1ccccc1-c1ccccc1)C(C(Cl)(Cl)Cl)N1CCc3cc4c(cc3C1=C2)OCO4 (stereo not drawn) [AB35531]	–	–	–
3.44	1.08	4.51	CCCC1c2c(ccc3c2OCO3)C=C2c3cc4c(cc3CCN21)OCO4 (stereo not drawn) [AB36416]	–	–	–
3.33	1.06	4.58	COc1ccc2c(c1Br)CN1CCc3cc4c(cc3C1=C2)OCO4 [AB36460]	–	–	–
3.33	1.11	3.12	COc1ccc2c(c1OCCCCCCNC(=O)OC(C)(C)C)C(C1CCCC1)N1CCc3cc4c(cc3C1=C2)OCO4 (stereo not drawn) [AB35455]	–	–	–
2.42	2.56	2.62	COc1ccc2c(c1OC)C(n1cccc1)N1CCc3cc4c(cc3C1=C2)OCO4 (stereo not drawn) [AB36520]	–	–	–
2.32	0.61	3.14	CCC(CC)COc1c(OC)ccc2c1C(C(Cl)(Cl)Cl)N1CCc3cc4c(cc3C1=C2)OCO4 (stereo not drawn) [AB35521]	–	–	–
1.58	0.29	1.98	COc1ccc2c(c1N1CCCCCC1)CN1CCc3cc4c(cc3C1=C2)OCO4 [AB36493]	–	–	–
1.33	0.14	1.56	COc1ccc2c(c1N1CCC(C)CC1)CN1CCc3cc4c(cc3C1=C2)OCCO4 [AB35545]	–	–	–
1.32	0.23	2.08	COc1ccc2c(c1N1CCC(C)CC1)C(C(Cl)(Cl)Cl)N1CCc3cc4c(cc3C1=C2)OCO4 (stereo not drawn) [AB35453]	–	–	–
1.32	0.53	2.54	COc1ccc2c(c1OC)CN1CCc3cc4c(cc3C1=C2Cc1ccc(C(C)C)cc1)OCO4 [AB31870]	–	–	–
